Test system: AMPKα
Assay: Measurement of AMPK-activation effect (AMPKα Thr172 phosphorylation immunoassay in MCF7 cells)
Format: cell-based, human
Conditions: 10 uM, 24 hours, relative to untreated cells
Description: MCF7 cells derived from human breast cancer cells (commercially available from the Korean Cell Line Bank) were used, and the AMPK (5′-AMP-activated protein kinase alpha)-activation effect of the biguanide derivative was confirmed using an AMPKα immunoassay kit (Invitrogen, Catalog No. KH00651).
MCF7 cells were cultured in a DMEM medium supplemented with 10% fetal bovine serum. Thereafter, the cultured MCF7 cells were put into a 6-well plate with approximately 5×10^5 cells per well and cultured in an incubator supplied with 5% CO2. Culture media were treated with the derivatives synthesized in the examples at contents of 5, 10 and 50 μM, and then cultured for 24 hours. Metformin hydrochloride was used as the control, and the culture media were treated with 0.05, 0.5, 1, 2, 5 and 10 mM metformin hydrochloride, and then tested in the same manner as described in the derivatives synthesized in the examples. Subsequently, the cells were lysed according to a method presented in the operation manual of the AMPKα immunoassay kit, and 20 μg of a cell lysate was then yielded through protein assay. Thereafter, the AMPK activation effect was obtained by determining the degree of phosphorylation of 172nd threonine residue (Thr172) of the AMPKα from the cell lysate according to the method presented in the operation manual of the AMPKα immunoassay kit. […] A curve graph showing AMPK activation according to the concentration of the treated compounds was plotted based on the obtained AMPKα activation results, the concentration (activation concentration 150, AC150) value of the compound whose AMPK activation reached 150% was calculated using a GraphPad Prism 5.0 program, and the degrees of AMPK activation were obtained when concentrations of the treated biguanide derivatives were 10 μM and 50 μM and the metformin hydrochloride was 50 μM.

Row | Structure (SMILES) | AMPK activation effect 10 uM (%)
1 | Cl.N=C(NCc1cccc(C(F)(F)F)c1)NC(=N)N1CCCCC1 [Example 7, N1-piperidine-N5-(3-trifluoromethyl)benzyl biguanide hydrochloride] | 582
2 | CNC(=N)NC(=N)N1CCCCC1.Cl [Example 8, N1-piperidine-N5-methyl biguanide hydrochloride] | 139
3 | Cl.N=C(NC(=N)N1CCCC1)NC1CCCC1 [Example 13, N1-pyrrolidine-N5-cyclopentyl biguanide hydrochloride] | 131
4 | Cl.N=C(NC(=N)N1CCCCC1)NC1CCCC1 [Example 14, N1-piperidine-N5-cyclopentyl biguanide hydrochloride] | 114
5 | Cl.N=C(NC(=N)N1CCCCCC1)NC1CCCC1 [Example 15, N1-azepane-N5-cyclopentyl biguanide hydrochloride] | 174
6 | Cl.N=C(NC(=N)N1CCCCC1)NC1CCCCC1 [Example 16, N1-piperidine-N5-cyclohexyl biguanide hydrochloride] | 167
7 | Cl.N=C(NC(=N)N1CCCC1)NC1CCCCCC1 [Example 17, N1-pyrrolidine-N5-cycloheptyl biguanide hydrochloride] | 149
8 | Cl.N=C(NC(=N)N1CCCCC1)NC1CCCCCC1 [Example 18, N1-piperidine-N5-cycloheptyl biguanide hydrochloride] | 304
9 | Cl.N=C(NC(=N)N1CCCCCC1)NC1CCCCCC1 [Example 19, N1-azepane-N5-cycloheptyl biguanide hydrochloride] | 213
10 | Cl.N=C(NCc1cccnc1)NC(=N)N1CCCC1 [Example 20, N1-pyrrolidine-N5-(pyridine-3-ylmethyl)biguanide hydrochloride] | 71
11 | Cl.N=C(NCc1ccco1)NC(=N)N1CCCC1 [Example 22, N1-pyrrolidine-N5-(furan-2-ylmethyl)biguanide hydrochloride] | 101

Same assay, conditions: 50 uM, 24 hours, relative to untreated cells

Row | Structure (SMILES) | AMPK activation effect 50 uM (%)
12 | Cl.N=C(NCc1cccc(C(F)(F)F)c1)NC(=N)N1CCCCC1 [Example 7, N1-piperidine-N5-(3-trifluoromethyl)benzyl biguanide hydrochloride] | 677
13 | CNC(=N)NC(=N)N1CCCCC1.Cl [Example 8, N1-piperidine-N5-methyl biguanide hydrochloride] | 500
14 | Cl.N=C(NC(=N)N1CCCC1)NC1CCCC1 [Example 13, N1-pyrrolidine-N5-cyclopentyl biguanide hydrochloride] | 375
15 | Cl.N=C(NC(=N)N1CCCCC1)NC1CCCC1 [Example 14, N1-piperidine-N5-cyclopentyl biguanide hydrochloride] | 157
16 | Cl.N=C(NC(=N)N1CCCCCC1)NC1CCCC1 [Example 15, N1-azepane-N5-cyclopentyl biguanide hydrochloride] | 291
17 | Cl.N=C(NC(=N)N1CCCCC1)NC1CCCCC1 [Example 16, N1-piperidine-N5-cyclohexyl biguanide hydrochloride] | 486
18 | Cl.N=C(NC(=N)N1CCCC1)NC1CCCCCC1 [Example 17, N1-pyrrolidine-N5-cycloheptyl biguanide hydrochloride] | 612
19 | Cl.N=C(NC(=N)N1CCCCC1)NC1CCCCCC1 [Example 18, N1-piperidine-N5-cycloheptyl biguanide hydrochloride] | 719
20 | Cl.N=C(NC(=N)N1CCCCCC1)NC1CCCCCC1 [Example 19, N1-azepane-N5-cycloheptyl biguanide hydrochloride] | 325
21 | Cl.N=C(NCc1cccnc1)NC(=N)N1CCCC1 [Example 20, N1-pyrrolidine-N5-(pyridine-3-ylmethyl)biguanide hydrochloride] | 89
22 | Cl.N=C(NCc1ccco1)NC(=N)N1CCCC1 [Example 22, N1-pyrrolidine-N5-(furan-2-ylmethyl)biguanide hydrochloride] | 293

Same assay, conditions: 24 hours

Row | Structure (SMILES) | AC150 (concentration at which AMPK activation reached 150%) [µM]
23 | Cl.N=C(NCc1cccc(C(F)(F)F)c1)NC(=N)N1CCCCC1 [Example 7, N1-piperidine-N5-(3-trifluoromethyl)benzyl biguanide hydrochloride] | 1.0
24 | CNC(=N)NC(=N)N1CCCCC1.Cl [Example 8, N1-piperidine-N5-methyl biguanide hydrochloride] | 9.0
25 | Cl.N=C(NC(=N)N1CCCC1)NC1CCCC1 [Example 13, N1-pyrrolidine-N5-cyclopentyl biguanide hydrochloride] | 11.9
26 | Cl.N=C(NC(=N)N1CCCCC1)NC1CCCC1 [Example 14, N1-piperidine-N5-cyclopentyl biguanide hydrochloride] | 38.3
27 | Cl.N=C(NC(=N)N1CCCCCC1)NC1CCCC1 [Example 15, N1-azepane-N5-cyclopentyl biguanide hydrochloride] | 7.0
28 | Cl.N=C(NC(=N)N1CCCCC1)NC1CCCCC1 [Example 16, N1-piperidine-N5-cyclohexyl biguanide hydrochloride] | 8.0
29 | Cl.N=C(NC(=N)N1CCCC1)NC1CCCCCC1 [Example 17, N1-pyrrolidine-N5-cycloheptyl biguanide hydrochloride] | 7.9
30 | Cl.N=C(NC(=N)N1CCCCC1)NC1CCCCCC1 [Example 18, N1-piperidine-N5-cycloheptyl biguanide hydrochloride] | 2.2
31 | Cl.N=C(NC(=N)N1CCCCCC1)NC1CCCCCC1 [Example 19, N1-azepane-N5-cycloheptyl biguanide hydrochloride] | 5.6
32 | Cl.N=C(NCc1cccnc1)NC(=N)N1CCCC1 [Example 20, N1-pyrrolidine-N5-(pyridine-3-ylmethyl)biguanide hydrochloride] | >50
33 | Cl.N=C(NCc1ccco1)NC(=N)N1CCCC1 [Example 22, N1-pyrrolidine-N5-(furan-2-ylmethyl)biguanide hydrochloride] | 18.3

Test system: HCT116 cells
Assay: Measurement of effect of inhibiting cancer cell proliferation (MTT)
Format: cell-based
Conditions: Homo sapiens, HCT-116, 100 uM, 48 hours, read-out: Cell Growth Inhibition (%) at 100 uM
From the text: HCT116 cells derived from human colorectal cancer (commercially available from the Korean Cell Line Bank) were used, and the effect of inhibiting cancer cell proliferation of the biguanide derivative was confirmed by measuring the concentration value (cell growth inhibition concentration, GIC50) at which cell growth was inhibited by 50% using a 3-(4,5-dimethylthiazol-2-yl)-2,5-[…] bromide (MTT) reagent.
First, HCT116 cells were put on a 96-well plate and cultured in a DMEM medium containing 10% fetal bovine serum for 16 hours so that the cellcount in each well was approximately 5,000. Subsequently, to obtain the GIC50 value of each compound, culture media were treated with 100 μM, 25 μM, 6.25 μM, 1.56 μM or 0.39 μM of the compound, and then cultured for 48 hours. At this time, some of the compounds were treated with 200 μM instead of 100 μM. Metformin hydrochloride was used as the control, and the culture media were treated with 25, 12.5, 2.5, 0.5, 0.1 mM metformin hydrochloride, and then tested in the same manner as described in the derivatives synthesized in the examples. In order to determine whether the cells survived after treatment with the compound, MTT was added to the culture media which were then cultured for another 3 hours. Formed formazane crystals were dissolved using dimethyl sulfoxide (DMSO), and the absorbance of the resulting solution was measured at 560 nm. After the 48-hours culture, the ratio of the cell count cultured on a well plate not treated with the compound to the living cell count on a well plate treated with the compounds synthesized in the examples was indicated as cell viability (%) according to each treated concentration. A cell viability curve graph was plotted and the concentration (GIC50) value of the compound at which the growth was inhibited by 50% was calculated to confirm the effect of inhibition of cancer cell proliferation. Also, the cell growth viability (%) when the concentration of the treated biguanide derivative and the metformin hydrochloride as the control were 100 uM was shown.

Row | Structure (SMILES) | inhibition at 100 µM [%]
34 | Cl.N=C(NCc1cccc(C(F)(F)F)c1)NC(=N)N1CCCCC1 [Example 7, N1-piperidine-N5-(3-trifluoromethyl)benzyl biguanide hydrochloride] | 97.4
35 | CNC(=N)NC(=N)N1CCCCC1.Cl [Example 8, N1-piperidine-N5-methyl biguanide hydrochloride] | 50.5
36 | Cl.N=C(NC(=N)N1CCCC1)NC1CCCC1 [Example 13, N1-pyrrolidine-N5-cyclopentyl biguanide hydrochloride] | 41.9
37 | Cl.N=C(NC(=N)N1CCCCC1)NC1CCCC1 [Example 14, N1-piperidine-N5-cyclopentyl biguanide hydrochloride] | 30.4
38 | Cl.N=C(NC(=N)N1CCCCCC1)NC1CCCC1 [Example 15, N1-azepane-N5-cyclopentyl biguanide hydrochloride] | 27.9
39 | Cl.N=C(NC(=N)N1CCCCC1)NC1CCCCC1 [Example 16, N1-piperidine-N5-cyclohexyl biguanide hydrochloride] | 49.1
40 | Cl.N=C(NC(=N)N1CCCC1)NC1CCCCCC1 [Example 17, N1-pyrrolidine-N5-cycloheptyl biguanide hydrochloride] | 60.8
41 | Cl.N=C(NC(=N)N1CCCCC1)NC1CCCCCC1 [Example 18, N1-piperidine-N5-cycloheptyl biguanide hydrochloride] | 64.3
42 | Cl.N=C(NC(=N)N1CCCCCC1)NC1CCCCCC1 [Example 19, N1-azepane-N5-cycloheptyl biguanide hydrochloride] | 94.7
43 | Cl.N=C(NCc1cccnc1)NC(=N)N1CCCC1 [Example 20, N1-pyrrolidine-N5-(pyridine-3-ylmethyl)biguanide hydrochloride] | 9.2
44 | Cl.N=C(NCc1ccco1)NC(=N)N1CCCC1 [Example 22, N1-pyrrolidine-N5-(furan-2-ylmethyl)biguanide hydrochloride] | 43.9

Same assay, conditions: Homo sapiens, HCT-116, 48 hours

Row | Structure (SMILES) | GI50 [µM]
45 | CNC(=N)NC(=N)N1CCCCC1.Cl [Example 8, N1-piperidine-N5-methyl biguanide hydrochloride] | 88.6
46 | Cl.N=C(NC(=N)N1CCCC1)NC1CCCC1 [Example 13, N1-pyrrolidine-N5-cyclopentyl biguanide hydrochloride] | > 100
47 | Cl.N=C(NC(=N)N1CCCCC1)NC1CCCC1 [Example 14, N1-piperidine-N5-cyclopentyl biguanide hydrochloride] | > 100
48 | Cl.N=C(NC(=N)N1CCCCCC1)NC1CCCC1 [Example 15, N1-azepane-N5-cyclopentyl biguanide hydrochloride] | > 100
49 | Cl.N=C(NC(=N)N1CCCCC1)NC1CCCCC1 [Example 16, N1-piperidine-N5-cyclohexyl biguanide hydrochloride] | > 100
50 | Cl.N=C(NCc1cccnc1)NC(=N)N1CCCC1 [Example 20, N1-pyrrolidine-N5-(pyridine-3-ylmethyl)biguanide hydrochloride] | > 100
51 | Cl.N=C(NCc1ccco1)NC(=N)N1CCCC1 [Example 22, N1-pyrrolidine-N5-(furan-2-ylmethyl)biguanide hydrochloride] | > 100

Molecules with a lower GI50, results first:

Row | GI50 [µM] | Structure (SMILES)
52 | 17.2 | Cl.N=C(NCc1cccc(C(F)(F)F)c1)NC(=N)N1CCCCC1 [Example 7, N1-piperidine-N5-(3-trifluoromethyl)benzyl biguanide hydrochloride]
53 | 41 | Cl.N=C(NC(=N)N1CCCC1)NC1CCCCCC1 [Example 17, N1-pyrrolidine-N5-cycloheptyl biguanide hydrochloride]
54 | 23.1 | Cl.N=C(NC(=N)N1CCCCC1)NC1CCCCCC1 [Example 18, N1-piperidine-N5-cycloheptyl biguanide hydrochloride]
55 | 35.7 | Cl.N=C(NC(=N)N1CCCCCC1)NC1CCCCCC1 [Example 19, N1-azepane-N5-cycloheptyl biguanide hydrochloride]

Test system: not given
Assay: not given
Conditions: not given

Row | Structure (SMILES) | melting point [°C]
56 | CNC(=N)NC(=N)N1CCCCC1.Cl [Example 8, N1-piperidine-N5-methyl biguanide hydrochloride] | 211 to 212
57 | Cl.N=C(NC(=N)N1CCCC1)NC1CCCC1 [Example 13, N1-pyrrolidine-N5-cyclopentyl biguanide hydrochloride] | 200 to 201
58 | Cl.N=C(NC(=N)N1CCCCC1)NC1CCCC1 [Example 14, N1-piperidine-N5-cyclopentyl biguanide hydrochloride] | 154 to 155
59 | Cl.N=C(NC(=N)N1CCCCCC1)NC1CCCC1 [Example 15, N1-azepane-N5-cyclopentyl biguanide hydrochloride] | 224 to 225
60 | Cl.N=C(NC(=N)N1CCCCC1)NC1CCCCC1 [Example 16, N1-piperidine-N5-cyclohexyl biguanide hydrochloride] | 214 to 215
61 | Cl.N=C(NCc1cccnc1)NC(=N)N1CCCC1 [Example 20, N1-pyrrolidine-N5-(pyridine-3-ylmethyl)biguanide hydrochloride] | 201 to 203
62 | Cl.N=C(NCc1ccco1)NC(=N)N1CCCC1 [Example 22, N1-pyrrolidine-N5-(furan-2-ylmethyl)biguanide hydrochloride] | 242 to 243

Further lines, results first:

Row | melting point [°C] | Structure (SMILES)
63 | 259 to 260 | Cl.N=C(NCc1cccc(C(F)(F)F)c1)NC(=N)N1CCCCC1 [Example 7, N1-piperidine-N5-(3-trifluoromethyl)benzyl biguanide hydrochloride]
64 | 265 to 266 | Cl.N=C(NC(=N)N1CCCC1)NC1CCCCCC1 [Example 17, N1-pyrrolidine-N5-cycloheptyl biguanide hydrochloride]
65 | 237 to 238 | Cl.N=C(NC(=N)N1CCCCC1)NC1CCCCCC1 [Example 18, N1-piperidine-N5-cycloheptyl biguanide hydrochloride]
66 | 237 to 238 | Cl.N=C(NC(=N)N1CCCCCC1)NC1CCCCCC1 [Example 19, N1-azepane-N5-cycloheptyl biguanide hydrochloride]

From US9321742B2, “N1-cyclic amine-N5-substituted biguanide derivatives, methods of preparing the same and pharmaceutical composition comprising the same” (IMMUNOMET THERAPEUTICS INC., priority 2011, dated 2016)
